Reference: US20260258064A1 (SIRONAX LTD., priority 2023, published 2026)

Target: T1, SARM1 (50-724) (Homo sapiens, UniProt Q6SZW1)
T1 construct: Purified SARM1 (50-724) with a final concentration of 2 nM was pre-incubated with a test compound
T1 sequence (Q6SZW1 50-724): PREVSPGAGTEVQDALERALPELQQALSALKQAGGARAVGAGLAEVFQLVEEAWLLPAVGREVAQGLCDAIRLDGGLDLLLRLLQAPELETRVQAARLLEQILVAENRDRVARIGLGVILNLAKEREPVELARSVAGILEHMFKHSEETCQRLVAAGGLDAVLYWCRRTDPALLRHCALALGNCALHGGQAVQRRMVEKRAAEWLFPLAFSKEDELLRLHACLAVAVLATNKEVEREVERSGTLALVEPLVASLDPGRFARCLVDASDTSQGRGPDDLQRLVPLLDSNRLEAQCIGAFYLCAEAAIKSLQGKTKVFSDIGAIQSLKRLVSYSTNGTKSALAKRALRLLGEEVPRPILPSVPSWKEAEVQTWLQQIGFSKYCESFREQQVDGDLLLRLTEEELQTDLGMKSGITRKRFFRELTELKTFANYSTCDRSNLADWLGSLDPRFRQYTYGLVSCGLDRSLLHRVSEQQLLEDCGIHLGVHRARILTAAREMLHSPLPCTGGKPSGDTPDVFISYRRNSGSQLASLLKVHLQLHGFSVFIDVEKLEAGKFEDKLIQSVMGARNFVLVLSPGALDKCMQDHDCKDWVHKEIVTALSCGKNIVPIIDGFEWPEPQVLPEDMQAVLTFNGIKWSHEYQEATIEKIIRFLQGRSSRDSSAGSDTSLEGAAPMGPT
Test: SARM1 (50-724) enzymatic assay (LC-MS/MS)
Type: biochemical
Details: Purified SARM1 (50-724) 2 nM, NMN as activator, NAD+ as substrate, 1 h at room temperature, read-out: IC50 (SARM1 inhibitory activity)
Outline: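 Human SARM1 (50-724), 2 nM, pre-incubated 15 min at room temperature with compound in Dulbecco's PBS. Reaction started with 200 µM NMN (activator) plus […] NAD^+ substrate, run 1 h at room temperature, quenched with 70% acetonitrile. Turnover quantified by LC-MS/MS; IC50 reported.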

| IC50 | Structure (SMILES) |
| --- | --- |
| ≤ 100 nM | CC(C)(O)CCOc1ccc(OC(F)(F)F)c(-n2cnnc2-c2nc3cc(C(F)(F)F)ccc3[nH]2)n1 [Compound 256, 2-methyl-4-((5-(trifluoromethoxy)-6-(3-(5-(trifluoromethyl)-1H-benzo[d]imidazol-2-yl)-4H-1,2,4-triazol-4-yl)pyridin-2-yl)oxy)butan-2-ol] |
| ≤ 100 nM | Cn1c(-n2cnnc2-c2nc3cc(C(F)(F)F)ccc3[nH]2)c(C(F)(F)F)ccc1=O [Compound 284, 1-methyl-5-(trifluoromethyl)-6-(3-(5-(trifluoromethyl)-1H-benzo[d]imidazol-2-yl)-4H-1,2,4-triazol-4-yl)pyridin-2(1H)-one] |
| ≤ 100 nM | CC(c1cc(F)c2[nH]c(-c3nncn3-c3cnccc3C(F)(F)F)nc2c1)c1nccs1 (single isomer, unassigned) [Compound 433, 2-(1-(7-fluoro-2-(4-(4-(trifluoromethyl)pyridin-3-yl)-4H-1,2,4-triazol-3-yl)-1H-benzo[d]imidazol-5-yl)ethyl)thiazole] |
| ≤ 100 nM | O=S(=O)(Cc1nnc(-c2nc3cc(Cl)cc(F)c3[nH]2)n1-c1cccc(F)c1Cl)C1CC1 [Compound 194, 5-chloro-2-(4-(2-chloro-3-fluorophenyl)-5-((cyclopropylsulfonyl)methyl)-4H-1,2,4-triazol-3-yl)-7-fluoro-1H-benzo[d]imidazole] |
| ≤ 100 nM | CN(C)c1ccncc1-n1cnnc1-c1nc2cc(C(F)(F)F)ccc2[nH]1 [Compound 245, N,N-dimethyl-3-(3-(5-(trifluoromethyl)-1H-benzo[d]imidazol-2-yl)-4H-1,2,4-triazol-4-yl)pyridin-4-amine] |
| 500 to 1000 nM | O=C1CCCN1Cc1nnc(-c2nc3cc(C(F)(F)F)ccc3[nH]2)n1-c1cccc(F)c1Cl [Compound 384, 1-((4-(2-chloro-3-fluorophenyl)-5-(5-(trifluoromethyl)-1H-benzo[d]imidazol-2-yl)-4H-1,2,4-triazol-3-yl)methyl)pyrrolidin-2-one] |
| ≤ 100 nM | FC(F)(F)Oc1cnccc1-n1cnnc1-c1nc2cc(C(F)(F)F)cc(Cl)c2[nH]1 [Compound 227, 7-chloro-2-(4-(3-(trifluoromethoxy)pyridin-4-yl)-4H-1,2,4-triazol-3-yl)-5-(trifluoromethyl)-1H-benzo[d]imidazole] |
| 100 to 500 nM | Cn1cc(Cl)c(-n2cnnc2-c2nc3cc(C(F)(F)F)ccc3[nH]2)cc1=O [Compound 173, 5-chloro-1-methyl-4-(3-(5-(trifluoromethyl)-1H-benzo[d]imidazol-2-yl)-4H-1,2,4-triazol-4-yl)pyridin-2(1H)-one] |
| > 1000 nM | Cc1ncsc1-n1cnnc1-c1nc2cc(C(F)(F)F)ccc2[nH]1 [Compound 272, 4-methyl-5-(3-(5-(trifluoromethyl)-1H-benzo[d]imidazol-2-yl)-4H-1,2,4-triazol-4-yl)thiazole] |
| ≤ 100 nM | Fc1cc(C2(F)CC2)cc2nc(-c3nncn3-c3cnccc3C(F)(F)F)[nH]c12 [Compound 285, 7-fluoro-5-(1-fluorocyclopropyl)-2-(4-(4-(trifluoromethyl)pyridin-3-yl)-4H-1,2,4-triazol-3-yl)-1H-benzo[d]imidazole] |
| ≤ 100 nM | FC(F)(F)Oc1cccnc1-n1cnnc1-c1nc2cc(C(F)(F)F)ccc2[nH]1 [Compound 177] |
| 100 to 500 nM | FC(F)(F)c1ccc2[nH]c(-c3nccn3-c3cccc(Cl)c3Cl)nc2c1 [Example 57] |
| 100 to 500 nM | CCn1ccc2[nH]c(-c3nncn3-c3cccc(F)c3Cl)cc2c1=O [Compound 308, 2-(4-(2-chloro-3-fluorophenyl)-4H-1,2,4-triazol-3-yl)-5-ethyl-1,5-dihydro-4H-pyrrolo[3,2-c]pyridin-4-one] |
| 100 to 500 nM | CS(=O)(=O)c1ccc2[nH]c(-c3nncn3-c3cccc(Cl)c3Cl)nc2c1 [Example 46, 2-(4-(2,3-dichlorophenyl)-4H-1,2,4-triazol-3-yl)-5-(methylsulfonyl)-1H-benzo[d]imidazole] |
| ≤ 100 nM | CC(C)(C#N)c1ccc2[nH]c(-c3nncn3-c3cccc(Cl)c3Cl)nc2c1 [Example 112] |
| ≤ 100 nM | Fc1cc(C(F)(F)F)cc2nc(-c3nncn3-c3cc(C(F)F)ccc3Cl)[nH]c12 [Compound 200, 2-(4-(2-chloro-5-(difluoromethyl)phenyl)-4H-1,2,4-triazol-3-yl)-7-fluoro-5-(trifluoromethyl)-1H-benzo[d]imidazole] |
| > 1000 nM | Cn1cc(-c2ccc(Cl)cc2)c(-c2nc3cc(C(F)(F)F)ccc3[nH]2)cc1=O [Example 98] |

| IC50 | Structure (SMILES) |
| --- | --- |
| ≤ 100 nM | Clc1cc(-c2ccc3[nH]c(-c4nncn4-c4cccc(Cl)c4Cl)nc3c2)[nH]n1 [Example 82, 5-(3-chloro-1H-pyrazol-5-yl)-2-(4-(2,3-dichlorophenyl)-4H-1,2,4-triazol-3-yl)-1H-benzo[d]imidazole] |
| ≤ 100 nM | FC(F)(F)c1ccc2[nH]c(-c3nncn3-c3cnccc3C(F)(F)F)c(-c3cccnc3)c2c1 [Compound 387, 3-(pyridin-3-yl)-5-(trifluoromethyl)-2-(4-(4-(trifluoromethyl)pyridin-3-yl)-4H-1,2,4-triazol-3-yl)-1H-indole] |
| ≤ 100 nM | Fc1cccc(-n2cnnc2-c2nc3cc(C(F)(F)F)ccc3[nH]2)c1F [Example 84, 2-(4-(2,3-difluorophenyl)-4H-1,2,4-triazol-3-yl)-5-(trifluoromethyl)-1H-benzo[d]imidazole] |
| ≤ 100 nM | N#CC1(c2ccc3[nH]c(-c4nncn4-c4cccc(F)c4Cl)nc3c2)CC12CC2 (stereo not shown) [Compound 229, 1-(2-(4-(2-chloro-3-fluorophenyl)-4H-1,2,4-triazol-3-yl)-1H-benzo[d]imidazol-5-yl)spiro[2.2]pentane-1-carbonitrile] |
| 100 to 500 nM | Cn1cc(-c2ccc3[nH]c(-c4nncn4-c4cccc(Cl)c4Cl)nc3c2)cn1 [Example 79, 2-(4-(2,3-dichlorophenyl)-4H-1,2,4-triazol-3-yl)-5-(1-methyl-1H-pyrazol-4-yl)-1H-benzo[d]imidazole] |
| > 1000 nM | FC(F)(F)c1ccc2[nH]c(-c3ncncc3-c3cccc(Cl)c3Cl)nc2c1 [Compound 310, 2-(5-(2,3-dichlorophenyl)pyrimidin-4-yl)-5-(trifluoromethyl)-1H-benzo[d]imidazole] |
| ≤ 100 nM | CC(CO)c1ccc2[nH]c(-c3nncn3-c3cccc(Cl)c3Cl)nc2c1 (stereo not shown) [Example 104, 2-(2-(4-(2,3-dichlorophenyl)-4H-1,2,4-triazol-3-yl)-1H-benzo[d]imidazol-5-yl)propan-1-ol] |
| 100 to 500 nM | Cn1cc(-c2cccc(Cl)c2Cl)c(-c2nc3cc(Cl)c(Cl)cc3[nH]2)cc1=O [Compound 188, 4-(5,6-dichloro-1H-benzo[d]imidazol-2-yl)-5-(2,3-dichlorophenyl)-1-methylpyridin-2(1H)-one] |
| > 1000 nM | Cc1ccc2[nH]c(-c3[nH]nnc3C3CCCC3)nc2c1 [Compound 33, 2-(4-cyclopentyl-1H-1,2,3-triazol-5-yl)-5-methyl-1H-benzo[d]imidazole] |
| ≤ 100 nM | CS(=O)(=O)CCOc1ccc(OC(F)(F)F)c(-n2cnnc2-c2nc3cc(C(F)(F)F)ccc3[nH]2)n1 [Compound 267] |
| > 1000 nM | Cc1ccc2[nH]c(-c3ncccc3-c3cccc(Cl)c3Cl)nc2c1 [Example 21] |
| ≤ 100 nM | Cc1c(Cl)ccc2[nH]c(-c3nncn3-c3ccc(F)c(F)c3Cl)nc12 [Compound 164, 5-chloro-2-(4-(2-chloro-3,4-difluorophenyl)-4H-1,2,4-triazol-3-yl)-4-methyl-1H-benzo[d]imidazole] |
| ≤ 100 nM | FC(F)(F)c1ccc2[nH]c(-c3nncn3-c3cnccc3C(F)(F)F)c(-c3ccnnc3)c2c1 [Compound 427, 3-pyridazin-4-yl-5-(trifluoromethyl)-2-[4-[4-(trifluoromethyl)-3-pyridyl]-1,2,4-triazol-3-yl]-1H-indole] |
| ≤ 100 nM | FC(F)(F)c1ccc2[nH]c(-c3nncn3-c3c(C(F)(F)F)ccn4nccc34)nc2c1 [Compound 309, 5-(trifluoromethyl)-2-(4-(5-(trifluoromethyl)pyrazolo[1,5-a]pyridin-4-yl)-4H-1,2,4-triazol-3-yl)-1H-benzo[d]imidazole] |
| ≤ 100 nM | CC(c1cc(F)c2[nH]c(-c3nncn3-c3cnccc3C(F)(F)F)nc2c1)c1nccs1 (racemic) [Compound 412, 2-(1-(7-fluoro-2-(4-(4-(trifluoromethyl)pyridin-3-yl)-4H-1,2,4-triazol-3-yl)-1H-benzo[d]imidazol-5-yl)ethyl)thiazole] |
| ≤ 100 nM | Oc1cc(F)c2[nH]c(-c3nncn3-c3cnccc3C(F)(F)F)nc2c1 [Compound 327, 7-fluoro-2-(4-(4-(trifluoromethyl)pyridin-3-yl)-4H-1,2,4-triazol-3-yl)-1H-benzo[d]imidazol-5-ol] |

| Structure (SMILES) | IC50 |
| --- | --- |
| Cc1ccc2[nH]c(-c3cncn3C3CCCC3)nc2c1 [Compound 3, 2-(1-cyclopentyl-1H-imidazol-5-yl)-6-methyl-1H-benzo[d]Imi-dazole] | > 1000 nM |
